For orientation: solubility means the concentration that dissolves in the medium under given conditions.

Series [1] is described as follows: Solubility limits of LCA and UDCA in organic solvents. The following applies: organic solvent, organic solvent or mixture, thermodynamic from solid, read-out: solubility limit. The series is classed as physicochemical. On the procedure:
The organic solvent was added in increments of 100 μL, and the mixture was treated by shaking in a vortex shaker and optionally in an ultrasonic bath. It was visually assessed as to whether a clear solution was present.

Series [2] deals with Streptomyces hygroscopicus subsp. hygroscopicus (DSM-40578). The series can be described thus: Test of bacterial strains for 7-hydroxylation of deoxycholic acid. In kind it is cell-based. The following applies: deoxycholic acid 0.5 mM, cultured up to 72 h, HPLC and GC/MS. From the text: (§1) The following bacterial strains were obtained from the German Strain Collection of Microorganisms and Cell Cultures (DSMZ [Deutsche Stammsammlung für Mikroorganismen und Zellkulturen]): Saccharothrix longispora (DSM-43749), Catellatospora citrae (DSM-44097), Streptomyces hygroscopicus subsp. hygroscopicus (DSM-40578) and Asanoa ferruginea (DSM-44099). The strains were cultivated under standard conditions as recommended by DSMZ. […] After a centrifugation step, supernatants of the cultures were extracted with ethyl acetate and analyzed by HPLC and GC/MS.

The test system of series [3] is Asanoa ferruginea (DSM-44099). The description is as above. The series is classed as cell-based. The following applies: deoxycholic acid 0.5 mM, cultured up to 72 h, HPLC and GC/MS.
Description: as §1

In series [4] the test system is Saccharothrix longispora (DSM-43749). Described as above. The series is classed as cell-based. The following applies: deoxycholic acid 0.5 mM, cultured up to 72 h, HPLC and GC/MS.
Description: as §1

Series [5] relates to Catellatospora citrae (DSM-44097). The series is described as above. The series is classed as cell-based. The following applies: deoxycholic acid 0.5 mM, cultured up to 72 h, HPLC and GC/MS.
Description: as §1

In brackets after ≈: the same amount, converted by molar mass. Read-outs that look alike come from different tables or passages of the source.

With `C[C@H](CCC(=O)O)[C@H]1CC[C@H]2[C@@H]3[C@@H](O)C[C@@H]4C[C@H](O)CC[C@]4(C)[C@H]3CC[C@]12C` [UDCA, ursodeoxycholic acid], the solubility in series [1] (2-butanol) was 53 mg/mL (≈ 135 mM); in series [1] (2-butanone), 10 mg/mL (≈ 25.5 mM); in series [1] (CH2Cl2), 1.1 mg/mL (≈ 2.8 mM); in series [1] (CHCl3/phenol), 21.3 mg/mL (≈ 54.3 mM); in series [1] (CHCl3), 2.9 mg/mL (≈ 7.39 mM); in series [1] (DMA), more than 500 mg/mL. For the same molecule, the solubility in series [1] (DMF) was more than 500 mg/mL; in series [1] (DMSO), more than 500 mg/mL; in series [1] (Et2O) it was 2 mg/mL (≈ 5.09 mM); in series [1] (Me—THF) it was 63.4 mg/mL (≈ 161 mM); in series [1] (THF) it was 259 mg/mL (≈ 660 mM); in series [1] (acetone), 8.8 mg/mL (≈ 22.4 mM). For the same molecule, the solubility in series [1] (cyclohexane) was less than 0.7 mg/mL; in series [1] (dioxane), 92.6 mg/mL (≈ 236 mM); in series [1] (ethanol) it was 54.5 mg/mL (≈ 139 mM); in series [1] (ethyl acetate (EtOAc)) it was 2.9 mg/mL (≈ 7.39 mM); in series [1] (ethylene glycol), 16.6 mg/mL (≈ 42.3 mM); in series [1] (hexane/EtOAc + 0.01% trifluoroacetic acid (TFA)), less than 0.8 mg/mL. Also, the solubility in series [1] (hexane/IPA 7:3 + 0.02% TFA) is 12 mg/mL; in series [1] (hexane/IPA 8:2 + 0.01% TFA), 4 mg/mL; in series [1] (i Pr2O), less than 0.5 mg/mL; in series [1] (isopropanol (IPA)), 47.5 mg/mL (≈ 121 mM); in series [1] (methanol) it was more than 100 mg/mL; in series [1] (methyl isobutyl alcohol (MIBA)) it was 35.7 mg/mL (≈ 90.9 mM). The solubility in series [1] (methyl isobutyl ketone (MIBK)) is 4.4 mg/mL (≈ 11.2 mM); in series [1] (toluene) it was less than 1 mg/mL.
`C[C@H](CCC(=O)O)[C@H]1CC[C@H]2[C@@H]3CC[C@@H]4C[C@H](O)CC[C@]4(C)[C@H]3C[C@H](O)[C@]12C` [deoxycholic acid, 3α,12α-dihydroxy-5β-cholanic acid]: the “7-hydroxylated product of deoxycholic acid in culture supernatant” value is given as “a peak was noted the retention time of which corresponds to that of ursocholic acid” in series [2], “no indication of 7-hydroxylated products” in series [3], “no indication of 7-hydroxylated products” in series [4] and “no indication of 7-hydroxylated products” in series [5].

Values taken from US12601000B2, “Method for the hydroxylation of steroids” (ANNIKKI GMBH, priority 2020, dated 2026).
